Source: US10172858B2, “Combination pharmaceutical compositions and uses thereof” (Intellikine LLC, priority 2011, dated 2019)
Read-outs that look alike come from different tables or passages of the source.

Key:
PI3K β = PI3K β (Homo sapiens (Human), UniProt P42338); assay: PI3K β kinase assay; assay type: biochemical; settings: Table 2
PI3K γ = PI3K γ (Homo sapiens (Human), UniProt P48736); assay: PI3K γ kinase assay; assay type: biochemical; settings: Table 2
PI3K α = PI3K α (Homo sapiens (Human), UniProt P42336); assay: PI3K α kinase assay; assay type: biochemical
PI3K δ = PI3K δ (Homo sapiens (Human), UniProt O00329); assay: PI3K δ kinase assay; assay type: biochemical
mTORC = mTORC (Homo sapiens (Human), UniProt P42345); assay: mTORC in vitro IC50 (Table 2); assay type: biochemical
Protocol: The compounds described herein and any other mTor inhibitors known in the art can be tested against recombinant mTOR (Invitrogen) in an assay containing 50 mM HEPES, pH 7.5, 1 mM EGTA, 10 mM MgCl2, 2.5 mM, 0.01% Tween, 10 μM ATP (2.5 μCi of μ-32P-ATP), and 3 μg/mL BSA. Rat recombinant PHAS-1/4EBP1 (Calbiochem; 2 mg/mL) is used as a substrate. Reactions are terminated by spotting onto nitrocellulose, which is washed with 1M NaCl/1% phosphoric acid (approximately 6 times, 5-10 minutes each). Sheets are dried and the transferred radioactivity quantitated by phosphorimaging.
For instance, one can use Invitrogen's LanthaScreen™ Kinase assay to test the inhibitors of mTOR disclosed herein. This assay is a time resolved FRET platform that measures the phosphorylation of GFP labeled 4EBP1 by mTOR kinase. The kinase reaction is performed in a white 384 well microtitre plate. The total reaction volume is 20 ul per well and the reaction buffer composition is 50 mM HEPES pH7.5, 0.01% Polysorbate 20, 1 mM EGTA, 10 mM MnCl2, and 2 mM DTT. In the first step, each well receives 2 ul of test compound in 20% dimethylsulphoxide resulting in a 2% DMSO final concentration. Next, 8 ul of mTOR diluted in reaction buffer is added per well for a 60 ng/ml final concentration. To start the reaction, 10 ul of an ATP/GFP-4EBP1 mixture (diluted in reaction buffer) is added per well for a final concentration of 10 μM ATP and 0.5 μM GFP-4EBP1. The plate is sealed and incubated for 1 hour at room temperature. […] The plate is sealed, incubated for 1 hour at room temperature, and then read on a plate reader set up for LanthaScreen™ TR-FRET. Data is analyzed and IC50s are generated using GraphPad Prism 5.

[1] = system: Endometrial cancer cells containing mutations in PTEN and FGFR2; assay: Combination therapy in a tumor mouse model, tumor volume; assay type: in vivo, mice; settings: Paclitaxel alone 20 mg/kg Q1W intravenous
Description: Endometrial cancer cells containing mutations in PTEN and FGFR2 were implanted into mice. Mice having tumor volumes of approximately 150 mm^3 were grouped by treatment schedule, with the start of treatment designated as day 0. Control mice received no treatment.
In a further example, mice were implanted with endometrial cancer cells as above. Mice having tumor volumes of approximately 150 mm^3 were grouped by treatment schedule, with the start of treatment designated as day 0. Control mice received no treatment.

pS6, cleaved PARP = assay: Western blot of pS6 and cleaved PARP (FIG. 6); assay type: cell-based; settings: paclitaxel alone
[2] = system: HEC59 (paclitaxel resistant cell line) cells; assay: Growth of HEC59 cells (FIG. 9A); assay type: cell-based
PC3 = PC3 tumor cell line proliferation assay; assay type: cell-based; settings: Homo sapiens, PC-3; Table 2, in vitro IC50
Protocol: The assay is performed in a 96 well microtiter plate using Alamar Blue reduction. […] A compound disclosed herein is diluted in Tumor Cell Media and added in a 10 ul volume. […] A volume of 10 uL of Alamar Blue reagent is added to each well and plates are incubated for 3 hours at 37 C and 5% CO2. Alamar Blue fluoresce is read at 560Ex/590Em, and IC50 values are calculated using GraphPad Prism 5.

[3] = system: mTORC1-dependent NRDG1 phosphorylation; assay: Western blot of NRDG1 phosphorylation (FIG. 4B); assay type: cell-based

Chain of PI3K α (P42336 whole entry): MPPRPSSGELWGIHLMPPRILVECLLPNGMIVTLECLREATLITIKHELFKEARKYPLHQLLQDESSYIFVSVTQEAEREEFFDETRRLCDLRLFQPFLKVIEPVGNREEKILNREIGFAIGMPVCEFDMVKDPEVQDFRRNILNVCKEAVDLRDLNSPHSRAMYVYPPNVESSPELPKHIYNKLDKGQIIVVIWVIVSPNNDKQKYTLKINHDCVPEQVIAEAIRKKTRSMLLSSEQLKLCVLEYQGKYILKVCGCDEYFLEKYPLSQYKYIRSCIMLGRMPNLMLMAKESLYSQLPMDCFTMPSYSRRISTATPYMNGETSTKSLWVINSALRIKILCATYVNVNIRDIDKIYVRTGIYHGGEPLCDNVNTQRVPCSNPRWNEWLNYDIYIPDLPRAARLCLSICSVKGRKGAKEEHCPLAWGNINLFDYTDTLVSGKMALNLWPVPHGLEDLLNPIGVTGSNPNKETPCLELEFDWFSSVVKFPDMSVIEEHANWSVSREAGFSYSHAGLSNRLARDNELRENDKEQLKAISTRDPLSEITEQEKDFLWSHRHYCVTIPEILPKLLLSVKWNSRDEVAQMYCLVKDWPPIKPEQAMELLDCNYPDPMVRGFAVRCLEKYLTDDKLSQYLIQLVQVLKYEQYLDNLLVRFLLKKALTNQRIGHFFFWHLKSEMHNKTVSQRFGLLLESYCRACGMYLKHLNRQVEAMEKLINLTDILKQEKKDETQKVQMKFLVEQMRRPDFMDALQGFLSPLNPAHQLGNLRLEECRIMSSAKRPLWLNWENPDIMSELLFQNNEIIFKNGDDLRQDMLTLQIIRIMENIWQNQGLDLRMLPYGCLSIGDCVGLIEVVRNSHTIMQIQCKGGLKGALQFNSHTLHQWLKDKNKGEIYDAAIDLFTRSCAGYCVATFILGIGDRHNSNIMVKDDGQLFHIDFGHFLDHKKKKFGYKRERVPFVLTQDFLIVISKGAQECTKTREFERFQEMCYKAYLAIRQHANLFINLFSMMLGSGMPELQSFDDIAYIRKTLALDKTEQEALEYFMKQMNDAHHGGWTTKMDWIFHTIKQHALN
Chain of PI3K α (P27986 whole entry partner): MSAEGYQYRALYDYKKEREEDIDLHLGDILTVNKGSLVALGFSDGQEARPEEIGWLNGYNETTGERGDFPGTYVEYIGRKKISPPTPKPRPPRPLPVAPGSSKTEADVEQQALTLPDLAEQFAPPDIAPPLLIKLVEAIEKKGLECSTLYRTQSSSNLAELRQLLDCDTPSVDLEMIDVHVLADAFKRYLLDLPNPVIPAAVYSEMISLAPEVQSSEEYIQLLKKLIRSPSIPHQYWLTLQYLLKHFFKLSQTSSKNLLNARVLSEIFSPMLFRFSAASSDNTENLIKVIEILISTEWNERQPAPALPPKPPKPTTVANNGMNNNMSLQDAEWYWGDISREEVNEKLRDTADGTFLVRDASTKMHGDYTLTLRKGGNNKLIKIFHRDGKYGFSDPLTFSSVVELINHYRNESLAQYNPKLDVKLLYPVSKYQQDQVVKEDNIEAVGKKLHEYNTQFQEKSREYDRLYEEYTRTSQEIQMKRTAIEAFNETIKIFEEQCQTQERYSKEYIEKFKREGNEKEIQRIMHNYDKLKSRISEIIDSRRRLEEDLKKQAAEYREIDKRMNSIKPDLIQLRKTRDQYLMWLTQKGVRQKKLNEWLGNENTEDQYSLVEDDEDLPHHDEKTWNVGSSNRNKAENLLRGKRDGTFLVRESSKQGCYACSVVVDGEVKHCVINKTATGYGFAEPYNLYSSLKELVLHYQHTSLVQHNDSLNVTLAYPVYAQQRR
Chain of mTORC (P42345 1360-2549): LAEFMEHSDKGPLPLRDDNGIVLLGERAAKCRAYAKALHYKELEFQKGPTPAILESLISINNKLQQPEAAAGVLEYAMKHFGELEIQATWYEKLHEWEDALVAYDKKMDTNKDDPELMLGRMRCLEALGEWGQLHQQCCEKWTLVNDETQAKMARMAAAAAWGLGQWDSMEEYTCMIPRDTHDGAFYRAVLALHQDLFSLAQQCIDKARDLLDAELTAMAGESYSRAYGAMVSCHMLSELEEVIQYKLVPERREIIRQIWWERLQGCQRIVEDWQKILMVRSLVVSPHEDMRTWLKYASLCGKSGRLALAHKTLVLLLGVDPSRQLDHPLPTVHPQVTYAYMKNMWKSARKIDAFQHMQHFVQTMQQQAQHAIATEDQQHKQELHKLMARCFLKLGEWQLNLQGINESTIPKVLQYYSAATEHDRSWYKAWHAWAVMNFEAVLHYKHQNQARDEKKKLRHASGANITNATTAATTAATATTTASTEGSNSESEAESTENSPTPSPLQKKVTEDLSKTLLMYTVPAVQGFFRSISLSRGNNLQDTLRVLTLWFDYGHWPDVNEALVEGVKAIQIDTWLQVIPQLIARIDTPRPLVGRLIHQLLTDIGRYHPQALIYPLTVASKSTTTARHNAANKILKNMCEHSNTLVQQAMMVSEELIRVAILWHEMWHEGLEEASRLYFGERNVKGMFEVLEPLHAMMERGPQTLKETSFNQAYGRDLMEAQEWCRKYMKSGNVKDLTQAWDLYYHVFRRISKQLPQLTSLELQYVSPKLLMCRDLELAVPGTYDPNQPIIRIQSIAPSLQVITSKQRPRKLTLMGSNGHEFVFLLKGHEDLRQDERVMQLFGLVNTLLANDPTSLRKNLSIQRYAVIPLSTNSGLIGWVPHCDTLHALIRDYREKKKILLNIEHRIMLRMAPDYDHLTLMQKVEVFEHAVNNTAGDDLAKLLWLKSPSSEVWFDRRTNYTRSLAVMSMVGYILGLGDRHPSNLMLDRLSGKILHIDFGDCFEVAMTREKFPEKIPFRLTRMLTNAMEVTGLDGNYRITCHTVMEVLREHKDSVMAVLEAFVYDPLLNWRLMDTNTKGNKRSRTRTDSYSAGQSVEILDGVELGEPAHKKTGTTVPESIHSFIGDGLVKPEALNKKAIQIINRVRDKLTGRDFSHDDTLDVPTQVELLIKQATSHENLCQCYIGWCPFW
Chain of PI3K β (P42338 whole entry, species assumed): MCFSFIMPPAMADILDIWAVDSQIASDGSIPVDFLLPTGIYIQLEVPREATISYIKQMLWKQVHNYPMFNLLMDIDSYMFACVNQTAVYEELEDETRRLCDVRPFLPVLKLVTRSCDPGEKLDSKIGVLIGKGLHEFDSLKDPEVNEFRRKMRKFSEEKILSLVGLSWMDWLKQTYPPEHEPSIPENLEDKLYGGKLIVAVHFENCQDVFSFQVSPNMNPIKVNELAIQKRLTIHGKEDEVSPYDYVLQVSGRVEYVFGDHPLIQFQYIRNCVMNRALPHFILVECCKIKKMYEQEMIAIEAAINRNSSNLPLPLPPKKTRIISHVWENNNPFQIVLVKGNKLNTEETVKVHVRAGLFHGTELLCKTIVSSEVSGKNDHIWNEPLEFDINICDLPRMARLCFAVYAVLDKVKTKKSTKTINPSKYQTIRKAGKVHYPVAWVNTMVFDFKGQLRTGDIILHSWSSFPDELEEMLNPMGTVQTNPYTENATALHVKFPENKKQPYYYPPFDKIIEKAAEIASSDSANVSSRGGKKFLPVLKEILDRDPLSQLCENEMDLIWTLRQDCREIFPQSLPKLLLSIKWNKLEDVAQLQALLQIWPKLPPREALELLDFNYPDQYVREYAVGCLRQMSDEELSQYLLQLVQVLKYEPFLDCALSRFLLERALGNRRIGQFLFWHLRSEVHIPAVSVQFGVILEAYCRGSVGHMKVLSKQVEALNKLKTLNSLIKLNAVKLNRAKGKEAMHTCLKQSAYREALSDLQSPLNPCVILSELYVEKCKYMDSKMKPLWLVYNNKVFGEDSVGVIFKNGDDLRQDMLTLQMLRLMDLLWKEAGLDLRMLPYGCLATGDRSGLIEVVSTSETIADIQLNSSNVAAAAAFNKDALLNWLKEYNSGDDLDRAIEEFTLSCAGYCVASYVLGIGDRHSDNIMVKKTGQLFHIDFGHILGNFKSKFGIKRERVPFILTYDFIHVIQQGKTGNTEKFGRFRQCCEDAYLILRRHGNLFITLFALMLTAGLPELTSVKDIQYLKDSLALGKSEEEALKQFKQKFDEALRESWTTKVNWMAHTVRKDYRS
Chain of PI3K β (P27986 whole entry partner, species assumed): as the sequence (P27986 whole entry partner) above

Row | Structure (SMILES) | IC50 (PI3K β) [nM] | IC50 (PI3K γ) [nM] | IC50 (PI3K α) [nM] | IC50 (PI3K δ; Table 2) [nM] | IC50 (mTORC) [nM] | IC50 (PI3K α; Table 2) [nM] | increase in average tumor volume by day 22 [1] [%] | average tumor volume by day 22 ([1]; from about 150 mm^3 at day 0) | pS6 level (pS6, cleaved PARP) | inhibition of the growth of HEC59 cells [2] | IC50 (PC3) [nM] | IC50 (PI3K δ) [nM] | sensitivity of mTORC1-dependent NRDG1 phosphorylation [3]
1 | Nc1ncnc2c1c(-c1cc3cc(O)ccc3[nH]1)nn2C1CC(N2CCOCC2)C1 (centres unmarked) [Compound 49] | > 500 | < 500 | > 500 | < 500 | < 10 | – | – | – | – | – | – | – | –
2 | Nc1ncnc2c1c(-c1cc3cccc(O)c3[nH]1)nn2C1CCOCC1 [Compound 62] | > 500 | > 500 | – | < 100 | < 5 | > 500 | – | – | – | – | – | – | –
3 | COc1cccc2cc(-c3nn(C4CCN(C(=O)C5CC5)CC4)c4ncnc(N)c34)[nH]c12 [Compound 66] | > 500 | > 500 | – | > 500 | > 500 | > 500 | – | – | – | – | – | – | –
4 | CC(=O)O[C@H]1C(=O)[C@@]2(C)[C@H]([C@H](OC(=O)c3ccccc3)[C@]3(O)C[C@H](OC(=O)[C@H](O)[C@@H](NC(=O)c4ccccc4)c4ccccc4)C(C)=C1C3(C)C)[C@]1(OC(C)=O)CO[C@@H]1C[C@@H]2O [Paclitaxel] | – | – | – | – | – | – | 17 | about 175 mm^3 | induction of pS6 | partial inhibition | – | – | –
5 | CC(C)n1nc(-c2cc3cccc(Cl)c3[nH]2)c2c(N)ncnc21 [Compound 50] | > 500 | < 500 | – | < 500 | < 50 | > 500 | – | – | – | – | – | – | –
6 | CC(=O)N1CCC(n2nc(-c3cc4cc(O)cc(Cl)c4[nH]3)c3c(N)ncnc32)CC1 [Compound 70] | > 500 | < 100 | – | < 25 | < 5 | < 500 | – | – | – | – | – | – | –
7 | Nc1ncnc2c1c(-c1cc3cc(O)ccc3[nH]1)nn2C1CCOCC1 [Compound 42] | > 500 | – | > 500 | < 100 | < 5 | – | – | – | – | – | > 500 | – | –
8 | Nc1ncnc2c1c(-c1cc3c(Cl)cccc3[nH]1)nn2C1CCOCC1 [Compound 48] | > 500 | > 500 | – | > 500 | < 50 | > 500 | – | – | – | – | – | – | –
9 | CC(C)N1CCC(n2nc(-c3cc4c(Cl)ccc(O)c4[nH]3)c3c(N)ncnc32)CC1 [Compound 71] | > 500 | > 500 | – | – | < 100 | > 500 | – | – | – | – | – | > 500 | –
10 | CC(=O)N1CCC(n2nc(-c3cc4ccc(O)cc4[nH]3)c3c(N)ncnc32)CC1 [Compound 65] | > 500 | < 25 | – | < 25 | < 10 | < 50 | – | – | – | – | – | – | –
11 | COc1ccc(Cl)c2cc(-c3nn(C4CCOCC4)c4ncnc(N)c34)[nH]c12 [Compound 61] | > 500 | > 500 | – | > 500 | < 25 | > 500 | – | – | – | – | – | – | –
12 | CO[C@H]1C[C@@H]2CC[C@@H](C)[C@@](O)(O2)C(=O)C(=O)N2CCCC[C@H]2C(=O)O[C@H]([C@H](C)C[C@@H]2CC[C@@H](O)[C@H](OC)C2)CC(=O)[C@H](C)/C=C(\C)[C@@H](O)[C@@H](OC)C(=O)[C@H](C)C[C@H](C)/C=C/C=C/C=C/1C [rapamycin] | – | – | – | – | – | – | – | – | – | – | – | – | not
13 | Nc1ncnc2c1c(-c1cc3cc(O)ccc3[nH]1)nn2C1CCN(C(=O)C2CC2)CC1 [Compound 31] | > 500 | – | > 500 | < 500 | < 25 | – | – | – | – | – | > 500 | – | –
14 | Nc1ncnc2c1c(-c1cc3cccc(Cl)c3[nH]1)nn2C1CCOCC1 [Compound 51] | > 500 | < 500 | – | < 500 | < 50 | > 500 | – | – | – | – | – | – | –
15 | CC(=O)N1CCC(n2nc(-c3cc4c(Cl)ccc(O)c4[nH]3)c3c(N)ncnc32)CC1 [Compound 69] | > 500 | > 500 | – | – | < 5 | > 500 | – | – | – | – | – | < 500 | –
16 | COc1cccc2cc(-c3nn(C4CCOCC4)c4ncnc(N)c34)[nH]c12 [Compound 63] | > 500 | < 25 | < 500 | < 25 | < 5 | – | – | – | – | – | – | – | –
17 | Nc1ncnc2c1c(-c1cc3cccc(O)c3[nH]1)nn2C1CCN(C(=O)C2CC2)CC1 [Compound 41] | > 500 | < 50 | – | > 500 | < 10 | > 500 | – | – | – | – | > 500 | – | –
18 | Nc1ncnc2c1c(-c1cc3cc(O)cc(Cl)c3[nH]1)nn2C1CCOCC1 [Compound 68] | > 500 | < 50 | – | < 25 | < 5 | < 500 | – | – | – | – | – | – | –
19 | CC(C)N1CCC(n2nc(-c3cc4cccc(O)c4[nH]3)c3c(N)ncnc32)CC1 [Compound 64] | > 500 | < 500 | – | < 500 | < 25 | > 500 | – | – | – | – | – | – | –
20 | CN1CCN(C2CC(n3nc(-c4cc5cc(O)ccc5[nH]4)c4c(N)ncnc43)C2)CC1 (centres unmarked) [Compound 52] | > 500 | > 500 | > 500 | < 500 | < 500 | – | – | – | – | – | – | – | –
21 | COc1cc(Cl)c2[nH]c(-c3nn(C4CCOCC4)c4ncnc(N)c34)cc2c1 [Compound 67] | > 500 | > 500 | – | > 500 | > 500 | > 500 | – | – | – | – | – | – | –
